Ratio and IC50 data for 19 compounds are collected here from ChEMBL document CHEMBL1130879, “trans-3-Benzyl-4-hydroxy-7-chromanylbenzoic acid derivatives as antagonists of the leukotriene B4 (LTB4) receptor” (Bioorg Med Chem Lett, 1998).

Broadly, the IC50 is the midpoint of a concentration-inhibition curve.

Assay [1] in a line: Ratio of CD11b(WB) IC50 to CD11b (IC)IC50. It is filed as functional.
Assay [2] concerns the target Leukotriene B4 receptor (Cavia porcellus). Description: Compound was evaluated for its ability to inhibit [3H]LTB4 binding to LTB4 receptors on guinea pig spleen membranes.
Assay [3] addresses T1, Leukotriene B4 receptor (Homo sapiens, UniProt Q9NPC1+Q15722). Description: Ability to inhibit LTB4-induced chemotaxis of isolated human neutrophils. The class given is functional.
Assay [4] concerns the target T1, Leukotriene B4 receptor. Description: Ability to inhibit LTB4 binding to LTB receptors on isolated human neutrophils. The class given is protein assay.
The target in assay [5] is T1, Leukotriene B4 receptor. Description: Ability to inhibit LTB4-induced CD11b up-regulation on isolated human neutrophils in whole blood. It is filed as functional, tissue-based.
Assay [6] addresses T1, Leukotriene B4 receptor. Description: Ability to inhibit LTB4-induced CD11b up-regulation on isolated human neutrophils. The class given is functional.

Turning to `O=C(O)c1ccc(F)cc1-c1ccc2c(c1)OC[C@H](Cc1ccccc1)[C@H]2O` (stereo in doubt; 9), the Ratio in assay [1] came out at 2.5.
Regarding `O=C(O)c1ccc(F)cc1-c1ccc2c(c1)OC[C@H](Cc1ccc(-c3ccccc3)cc1)[C@H]2O` (stereo in doubt; 24), the Ratio in assay [1] turned out to be 2.5.
Regarding `O=C(O)c1ccc(Cl)cc1-c1ccc2c(c1)OC[C@H](Cc1ccccc1)[C@H]2O` (stereo in doubt; 6), in assay [1], the Ratio came out at 4.9.
Turning to `O=C(O)c1ccc(C(=O)O)c(-c2ccc3c(c2)OC[C@H](Cc2ccccc2)[C@H]3O)c1`, the IC50 in assay [2] is reported as over 1000 nM.
In the case of `O=C(O)c1c(F)cc(F)cc1-c1ccc2c(c1)OC[C@H](Cc1ccccc1)[C@H]2O`, the IC50 in assay [3] is given as 40 nM; in assay [4], 5 nM; in assay [5] it was 200 nM; in assay [6], 300 nM. Besides, in assay [1], the Ratio worked out at 0.7.
On to `O=C(O)c1ccc(Cl)cc1-c1ccc2c(c1)OC[C@H](Cc1ccc(-c3ccccc3)cc1)[C@H]2O` (stereo in doubt; 22), for which the Ratio in assay [1] was determined as 3.3.
As for `O=C(O)c1ccccc1-c1ccc2c(c1)OC[C@H](Cc1ccccc1)[C@H]2O`, in assay [2], the IC50 turned out to be 120 nM.
As for `O=C(O)c1ccc(C(F)(F)F)cc1-c1ccc2c(c1)OC[C@H](Cc1ccc(-c3ccccc3)cc1)[C@H]2O` (stereo in doubt; 26), in assay [1], the Ratio stood at 15.8.
As for `O=C(O)c1c(F)cccc1-c1ccc2c(c1)OC[C@H](Cc1ccccc1)[C@H]2O` (stereo in doubt; 13), the Ratio in assay [1] was 2.5.
Take `O=C(O)c1ccc(Cl)cc1-c1ccc2c(c1)OC[C@H](Cc1ccc(-c3ccccc3)cc1)[C@H]2O` (stereo in doubt; 23): in assay [1], the Ratio worked out at 6.6.
As for `O=C(O)c1ccc(F)cc1-c1ccc2c(c1)OC[C@H](Cc1ccccc1)[C@H]2O` (stereo in doubt; 10), the Ratio in assay [1] turned out to be 1.2.
As for `O=C(O)c1ccc(C(F)(F)F)cc1-c1ccc2c(c1)OC[C@H](Cc1ccc(-c3ccccc3)cc1)[C@H]2O` (stereo in doubt; 27), the Ratio in assay [1] stood at 4.9.
`O=S(=O)(Nc1ccc(F)cc1-c1ccc2c(c1)OC[C@H](Cc1ccccc1)[C@H]2O)C(F)(F)F` (stereo in doubt; 38): the Ratio in assay [1] was found to be 0.9.
Consider `O=C(O)c1ccc(C(F)(F)F)cc1-c1ccc2c(c1)OC[C@H](Cc1ccccc1)[C@H]2O` (stereo in doubt; 16), for which the Ratio in assay [1] turned out to be 2.3.
With `CNC(=O)c1ccc(C(=O)O)c(-c2ccc3c(c2)OC[C@H](Cc2ccccc2)[C@H]3O)c1`, the IC50 in assay [2] is reported as 4700 nM.
As for `COc1ccc(C(=O)O)c(-c2ccc3c(c2)OC[C@H](Cc2ccccc2)[C@H]3O)c1`, the IC50 in assay [2] is reported as 160 nM.
For the compound `O=C(O)c1ccc(F)cc1-c1ccc2c(c1)OC[C@H](Cc1ccc(-c3ccccc3)cc1)[C@H]2O` (stereo in doubt; 25), the Ratio in assay [1] came out at 7.3.
In the case of `O=C(O)c1c(-c2ccc3c(c2)OC[C@H](Cc2ccccc2)[C@H]3O)cccc1C(F)(F)F`, the IC50 is 24 nM in assay [3], 46 nM in assay [4], 890 nM in assay [5] and 750 nM in assay [6]. In addition, the Ratio in assay [1] was 1.2.
Turning to `O=C(O)c1ccc(Cl)cc1-c1ccc2c(c1)OC[C@H](Cc1ccccc1)[C@H]2O` (stereo in doubt; 5), the IC50 is listed as 26 nM in assay [3], 12 nM in assay [4] and 59 nM in assay [2].
